{
  "source": "patent US20050002904A1",
  "about": "“Uses of vascular endothelial growth factor and type I collagen inducible protein (VCIP)” (priority 2003, published 2005)",
  "key": {"endothelial cells [1]": {"system": "endothelial cells", "assay": "Adhesion blocking assay on GST-VCIP-RGD-coated dishes", "format": "cell-based, human"}, "VCIP": {"system": "VCIP", "assay": "VCIP mRNA induction by growth factors and cytokines in monolayer cells", "format": "cell-based, human", "description": "FIGS. 1A-M show expression analysis and predicted amino acid sequence of VEGF and type I collagen inducible protein (VCIP). FIG. 1A: HUVECs were embedded into three-dimensional type I collagen gel in the presence of 20% adult human serum, 1× ITS and stimulated with VEGF^165 (100 ng/ml). Total RNA was prepared at the indicated time points. Northern blots were hybridized with a fragment of the VCIP (clone-33A) cDNA probe. The transcript size (3.4 kb) is indicated on the right. The numbers at the bottom of the gel represent the fold increase in VCIP mRNA levels, as compared with untreated cells. […] Total RNA was isolated at indicated time points and subjected to VCIP northern blot analysis. […] FIG. 1E: Poly(A)^+ RNA prepared from various human tissues was subjected to VCIP northern blot analysis by hybridization with the clone-33A cDNA probe. FIG. 1F: The blot shown in FIG. 1E was re-hybridized with a GAPDH probe, showing that equal amounts of RNA were loaded across the lanes. FIG. 1G: Detection of VCIP mRNA by RT-PCR (20 cycles): monolayer endothelial cells were treated for 30 min with: (1) untreated, (2) bFGF (20 ng/ml), (3) VEGF^165 (100 ng/ml), (4) PMA (20 ng/ml), (5) bFGF (20 ng/ml)+VEGF (100 ng/ml), (6) bFGF (20 ng/ml)+PMA (20 ng/ml), (7) VEGF (100 ng/ml)+PMA (20 ng/ml) and (8) bFGF (20 ng/ml)+VEGF (100 ng/ml)+PMA (20 ng/ml). FIGS. 1H-J: RT-PCR analysis of uPAR mRNA (FIG. 1H), β-actin mRNA (FIG. 11) and GAPDH mRNA levels (FIG. 1J) were carried out under the same conditions as described in FIG. 1G. All experiments were repeated at least three times, with similar results. FIG. 1K: Inserts from six recombinant_phage clones are shown, and the relative position of clone 33A is indicated. FIG. 1L: The complete predicted amino acid sequence of VCIP. The putative transmembrane segments are underlined. The N-linked glycosylation site is indicated by an asterisk. The lipid phosphatase catalytic domain is indicated by bold letters and underlined, and the RGD motif is boxed. FIG. 1M: The amino acid sequence of human VCIP (top) is aligned with other proteins containing lipid phosphatase-like catalytic motifs.\nFIGS. 3A-F show VCIP induction by growth factors and cytokines. Indicated monolayer cells were stimulated with various growth factors and cytokines for 6 h in media M199 containing 10% serum+1× ITS. The concentrations of cytokines used were optimized according to their ability to induce Erk2 phosphorylation in western blot analysis: VEGF^165 (100 ng/ml), EGF (20 ng/ml), bFGF (30 ng/ml), TNF-α (15 ng/ml), PMA (10 ng/ml) and IL-1β (25 ng/ml). Total RNA (20 μg per lane) was subjected to northern blot analysis by hybridization with the indicated probes. The uPAR northern blot was included as a control for the cytokines used. Ethidium bromide-stained gels show equal amounts of RNA used (FIGS. 3C and F). Data shown are representative of those obtained in two or three separate experiments.\nVCIP mRNA was most strongly expressed in human heart and placenta, tissues that are highly vascularized (FIG. 1E). Next, expression of VCIP in monolayer endothelial cells treated with bFGF, VEGF and PMA was examined (FIG. 1G). […] This pattern of regulation was identical to that of the human receptor for urokinase plasminogen activator (uPAR) expression (FIG. 1H). β-actin and GAPDH were included as controls and were not regulated under any of these conditions (FIGS. 1I and J).\nTo examine VCIP expression by other cell types, endothelial, smooth muscle and epithelial cells (A431) were stimulated in monolayer with various growth factors and cytokines for 6 h. Total RNA was then isolated and subjected to northern blot analysis for VCIP and uPAR (FIG. 3)."}, "PAP2b": {"target": "T1, PAP2b (Homo sapiens, UniProt O14495)", "T1 construct": "expressed in transfected cells; host or cells: 293T cells (membrane fraction)", "T1 sequence (O14495 1-311)": "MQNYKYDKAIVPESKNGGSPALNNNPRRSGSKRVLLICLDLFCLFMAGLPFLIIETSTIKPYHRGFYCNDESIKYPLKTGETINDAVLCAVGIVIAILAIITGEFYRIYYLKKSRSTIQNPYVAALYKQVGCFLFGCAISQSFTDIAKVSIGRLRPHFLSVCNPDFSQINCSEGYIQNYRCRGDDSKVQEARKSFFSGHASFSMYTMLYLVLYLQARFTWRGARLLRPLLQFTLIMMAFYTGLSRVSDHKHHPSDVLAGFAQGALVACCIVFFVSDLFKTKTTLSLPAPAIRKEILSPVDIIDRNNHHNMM", "settings": "membrane fraction of 293T cells over-expressing PAP2b; cited from earlier work"}, "endothelial cells [2]": {"system": "endothelial cells", "assay": "Adhesion of endothelial cells to wells coated with GST fusion proteins", "format": "cell-based, human", "settings": "pretreatment 20 μg/ml for 1 h and continued exposure", "description": "FIG. 10A: Affinity purified GST-fusion proteins were resolved on SDS±PAGE and stained with Coomassie Blue. FIG. 10B: Integrins were immobilized onto 96-well plates, and various GST-fusion proteins (ligands) were allowed to bind. Bound ligands were incubated with anti-GST antibodies, appropriate substrate added and the color intensity measured. OD values <0.05 were considered to be background binding. Data are expressed as mean±SD (n=4). FIG. 10C: Dose-dependent binding of αvβ3 integrin with recombinant GST-VCIP-RGD. FIGS. 10D-F: Representative photomicrographs of adhesion and spreading of endothelial cells replated onto dishes coated with either fibronectin (FIG. 9D), vitronectin (FIG. 9E) or GST-VCIP-RGD (FIG. 9F). […] Attached cells were stained, washed and absorbances of eluted dyes measured. […] Attached cells were stained, washed and absorbances of eluted dyes determined. […] Data are expressed as mean±S.D.; diamond, P<0.01; asterisk, P<0.001. […]\nFor adhesion blocking assays, endothelial cells were detached, washed with PBS and resuspended in M199 media containing 1 mM CaCl2 and 1 mM MgCl2 in the absence of serum or growth factors. […] Absorbances were measured at 540 nm.\nNext, the capacity of VCIP-RGD to bind endothelial cell integrins was evaluated by determining the effect of GST-VCIP fusion proteins on cell adhesion and spreading."}, "[3]": {"system": "HEK cells stably expressing pLNCX2-VCIP-RGD (WT)", "assay": "Cell aggregation of HEK cells stably expressing VCIP constructs (Table 1)", "format": "cell-based", "settings": "for size, speed of formation and number of cell aggregates: continuous presence, antibody 25-50 μl/ml, peptides 10-50 nM; for % cell aggregates: WT cells, 48 h, mean ± SD", "description": "WT cells were also incubated with several peptides modeled after the VCIP-RGD region. When WT cells were cultured in the continuous presence of an anti-VCIP-RGD antibody (25-50 μl/ml) and NYRCRGDDSK (SEQ ID NO:20) (10-50 nM), the size, the speed of formation and the number of such cell aggregates were reduced (Table 1)."}, "[4]": {"settings": "A431 epidermoid carcinoma cells, 6 h, northern blot"}, "[5]": {"settings": "monolayer endothelial cells, RT-PCR, 30 min"}},
  "note": "Marks after values point to notes of the source that are not given here. Where no end group is shown, it is not given here.",
  "data": [
    {"compound": "NYRCRGDDSKVQE (also: acetylated) [acetylated NYRCRGDDSKVQE (VCIP-RGD)]", "values": [
      {"measurement": "detachment of attached cells from VCIP-RGD-coated wells", "setting": "endothelial cells [1]; 5 nM", "value": "eventually completely detached from the wells"},
      {"measurement": "time until attached cells rounded up", "setting": "endothelial cells [1]; 5 nM, cells plated on VCIP-RGD-coated wells", "value": "≤ 5", "unit": "min"}
    ]},
    {"compound": "CCCCCCCCCCCCCC(=O)O[C@@H]1[C@@H](C)[C@@]2(O)[C@@H](C=C(CO)C[C@]3(O)C(=O)C(C)=C[C@@H]23)[C@@H]2C(C)(C)[C@]12OC(C)=O", "note": "[PMA]", "values": [
      {"measurement": "induction of VCIP expression", "setting": "VCIP; [4]", "value": "strongly induced"},
      {"measurement": "induction of VCIP expression", "setting": "VCIP; AoSMC, 6 h, northern blot", "value": "did not"},
      {"measurement": "induction of VCIP expression", "setting": "VCIP; CASMCs, 6 h, northern blot", "value": "Neither PMA nor VEGF^165 induced expression of VCIP"},
      {"measurement": "induction of VCIP expression", "setting": "VCIP; [5]", "value": "equally able to induce expression of VCIP"}
    ]},
    {"compound": "CCN1C(=O)C=CC1=O", "note": "[N-ethylmaleimide]", "values": [
      {"measurement": "effect on phosphatase activity against phosphatidic acid", "setting": "PAP2b", "value": "insensitive"}
    ]},
    {"compound": "C[C@@H]1C[C@@H]([C@H](O)CC2CC(=O)NC(=O)C2)C(=O)[C@@H](C)C1", "note": "[cycloheximide, reference compound]", "values": [
      {"measurement": "total number of attached cells", "setting": "endothelial cells [2]", "value": "did not decrease the total number of attached cells"}
    ]},
    {"compound": "NYRCRADDSK (CHAIN a peptide containing a mutated RGD sequence)", "values": [
      {"measurement": "size, speed of formation and number of cell aggregates", "setting": "[3]", "value": "no reduction in cell aggregation"},
      {"measurement": "% cell aggregates", "setting": "[3]; substance 10 nM", "value": "92 ± 5.7", "unit": "%"},
      {"measurement": "% cell aggregates", "setting": "[3]; substance 30 nM", "value": "89 ± 7.5", "unit": "%"},
      {"measurement": "% cell aggregates", "setting": "[3]; substance 50 nM", "value": "90 ± 7.2^a %"}
    ]},
    {"compound": "NYRCRGDDSK (CHAIN a peptide containing RGD sequence)", "values": [
      {"measurement": "size, speed of formation and number of cell aggregates", "setting": "[3]", "value": "reduced"},
      {"measurement": "% cell aggregates", "setting": "[3]; substance 10 nM", "value": "67 ± 15.7", "unit": "%"},
      {"measurement": "% cell aggregates", "setting": "[3]; substance 30 nM", "value": "46 ± 13.3", "unit": "%"},
      {"measurement": "% cell aggregates", "setting": "[3]; substance 50 nM", "value": "28 ± 10.5^a %"}
    ]},
    {"compound": "NYRCRGEDSK (CHAIN a peptide containing a mutated RGD sequence)", "values": [
      {"measurement": "size, speed of formation and number of cell aggregates", "setting": "[3]", "value": "no reduction in cell aggregation"}
    ]},
    {"compound": "bFGF: Basic Fibroblast growth factor", "values": [
      {"measurement": "induction of VCIP expression", "setting": "VCIP; [4]", "value": "had no effect"},
      {"measurement": "induction of VCIP expression", "setting": "VCIP; [5]", "value": "equally able to induce expression of VCIP"}
    ]},
    {"compound": "CCCCCCCCCCCCC/C=C/[C@@H](O)[C@@H](N)CO", "note": "[sphingosine]", "values": [
      {"measurement": "effect on phosphatase activity against phosphatidic acid", "setting": "PAP2b", "value": "blocked"}
    ]},
    {"compound": "CC(C)NCC(O)COc1cccc2ccccc12", "note": "(centres unmarked) [propranolol]", "values": [
      {"measurement": "effect on phosphatase activity against phosphatidic acid", "setting": "PAP2b", "value": "blocked"}
    ]},
    {"compound": "TNF-α", "values": [
      {"measurement": "induction of VCIP expression", "setting": "VCIP; [4]", "value": "had no effect"}
    ]},
    {"compound": "O=C(O)CN(CCN(CC(=O)O)CC(=O)O)CC(=O)O", "note": "[EDTA, reference compound]", "values": [
      {"measurement": "detachment of endothelial cells adhered to VCIP", "setting": "endothelial cells [1]; 2.5 mM (pH 7.4) for 5 min", "value": "caused the cells to detach from tissue culture dishes"}
    ]}
  ]
}
